From patent US20060069132A1, “Azolecarboxamide herbicides” (priority 2004, published 2006)

Columns and labels:
[1] = system: cocklebur; experiment: Test B pre-/postemergence herbicide test; assay type: in vivo, Xanthium strumarium
In short: (§1)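 Formulation: non-phytotoxic solvent mix with surfactant. Timing: preemergence on seed and postemergence on 2–18 cm plants, applied concurrently. Readout after 13–15 d greenhouse: visual 0–100 control rating against controls.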

[2] = system: ducksalad; experiment: Test B flooded paddy test; assay type: in vivo, Heteranthera limosa; settings: 1000 g ai/ha, scale 0 to 100 (0 no effect, 100 complete control)
In short: (§2)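 Scale 0–100: zero equals no visible effect, 100 complete control, judged by eye relative to controls. Timing: 13 to 15 days in greenhouse post-treatment. Growth stage at spraying: two leaves (paddy) or one to four leaves, 2–18 cm (postemergence).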

[3] = system: lambsquarters; experiment: Test B pre-/postemergence herbicide test; assay type: in vivo, Chenopodium album
In short: (§3)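 Seeds were planted and treated preemergence with compounds formulated in a non-phytotoxic solvent mixture containing surfactant, while plants at the 1- to 4-leaf stage (2 to 18 cm) received postemergence sprays. Flooded paddy plants were grown to the 2-leaf stage. After 13 to 15 days in a greenhouse, injury was visually rated 0–100 against untreated controls.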

[4] = system: wheat; experiment: Test B postemergence herbicide test; assay type: in vivo, Triticum aestivum; design: key to Wheat plant response rating: 0 = no effect, 100 = complete control
In short: (§4)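 Each value is a visual 0–100 response rating taken against controls 13 to 15 days after treatment in the greenhouse. Plants received formulated chemical postemergence at the 1- to 4-leaf stage or, in flooded paddy, at the 2-leaf stage.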

[5] = system: velvetleaf; experiment: Test B pre-/postemergence herbicide test; assay type: in vivo, Abutilon theophrasti
In short: as §3

[6] = system: wild oat; experiment: Test B postemergence herbicide test; assay type: in vivo, Avena fatua
In short: as §4

[7] = system: morningglory; experiment: Test B pre-/postemergence herbicide test; assay type: in vivo, Ipomoea coccinea
In short: as §1

[8] = system: corn; experiment: Test B pre-/postemergence herbicide test; assay type: in vivo, Zea mays
In short: as §3

[9] = system: giant foxtail; experiment: Test B pre-/postemergence herbicide test; assay type: in vivo, Setaria faberi
In short: as §3

[10] = system: pigweed; experiment: Test B pre-/postemergence herbicide test; assay type: in vivo, Amaranthus retroflexus
In short: as §3

[11] = system: small flower umbrella sedge; experiment: Test B flooded paddy test; assay type: in vivo, Cyperus difformis; settings: 1000 g ai/ha, scale 0 to 100 (0 no effect, 100 complete control)
In short: as §2

[12] = system: barnyardgrass; experiment: Test B flooded paddy test; assay type: in vivo, Echinochloa crus-galli; settings: 1000 g ai/ha, scale 0 to 100 (0 no effect, 100 complete control)
In short: as §2

[13] = system: blackgrass; experiment: Test B postemergence herbicide test; assay type: in vivo, Alopecurus myosuroides
In short: as §2

[14] = system: rice; experiment: Test B flooded paddy test; assay type: in vivo, Oryza sativa; settings: 1000 g ai/ha, scale 0 to 100 (0 no effect, 100 complete control)
In short: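 Visual ratings, 0 (no effect) to 100 (complete control), made versus controls after 13–15 d greenhouse. Paddy plants treated at 2-leaf stage; postemergence plants at 1- to 4-leaf stage, 2–18 cm tall.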

[15] = system: Surinam grass; experiment: Test B pre-/postemergence herbicide test; assay type: in vivo, Urochloa decumbens
In short: as §3

[16] = 125 g ai/ha; 0 = no effect, 100 = complete control; preemergence
[17] = 500 g ai/ha; visual rating 0-100, 0 no effect, 100 complete control; preemergence
[18] = postemergence, 125 g ai/ha; visual rating, scale 0 (no effect) to 100 (complete control)
[19] = postemergence, 500 g ai/ha; visual rating, scale 0 (no effect) to 100 (complete control)
[20] = 125 g ai/ha, 0 = no effect, 100 = complete control, preemergence
[21] = 500 g ai/ha, visual rating 0-100, 0 no effect, 100 complete control, preemergence
[22] = postemergence, 125 g ai/ha, visual rating, scale 0 (no effect) to 100 (complete control)
[23] = postemergence, 500 g ai/ha, visual rating, scale 0 (no effect) to 100 (complete control)
[24] = 125 g ai/ha; 0 is no effect, 100 is complete control; preemergence
[25] = 125 g ai/ha; visual rating, scale 0 (no effect) to 100 (complete control); postemergence
[26] = postemergence, 500 g ai/ha; scale 0 to 100, 0 is no effect, 100 is complete control
[27] = 125 g ai/ha, 0 is no effect, 100 is complete control, preemergence
[28] = 125 g ai/ha, visual rating, scale 0 (no effect) to 100 (complete control), postemergence
[29] = Postemergence, 500 g ai/ha, scale 0 (no effect) to 100 (complete control)
[30] = 500 g ai/ha; visual rating, 0 = no effect, 100 = complete control; preemergence
[31] = 500 g ai/ha, visual rating, 0 = no effect, 100 = complete control, preemergence
[32] = postemergence, 500 g ai/ha, scale 0 to 100, 0 is no effect, 100 is complete control
[33] = preemergence, 125 g ai/ha; 0 to 100 scale, 0 is no effect, 100 is complete control
[34] = preemergence, 125 g ai/ha, 0 to 100 scale, 0 is no effect, 100 is complete control

SMILES: CCc1nc(C(C)(C)C)sc1C(=O)Nc1cccc(C(=O)NCCF)c1 [Compound 209]
- Cocklebur plant response rating (0 to 100 scale) [1, 16]: 10
- Plant response rating, Cocklebur [1, 17]: 30
- Cocklebur plant response rating [1, 18]: 30
- Cocklebur plant response rating [1, 19]: 40
- Ducksalad plant response rating ([2]; visual rating, 13 to 15 days): 80
- Lambsquarters plant response rating (0 to 100 scale) [3, 20]: 60
- Plant response rating, Lambsquarters [3, 21]: 100
- Lambsquarters plant response rating [3, 22]: 40
- Lambsquarters plant response rating [3, 23]: 40
- Wheat plant response rating [4, 22]: 10
- Wheat plant response rating [4, 23]: 20
- Velvetleaf plant response rating (0 to 100 scale) [5, 20]: 10
- Plant response rating, Velvetleaf [5, 21]: 50
- Velvetleaf plant response rating [5, 22]: 20
- Velvetleaf plant response rating [5, 23]: 20
- Oat, Wild plant response rating [6, 22]: 20
- Oat, Wild plant response rating [6, 23]: 20
- Morningglory plant response rating (0 to 100 scale) [7, 20]: 10
- Plant response rating, Morningglory [7, 21]: 20
- Morningglory plant response rating [7, 22]: 20
- Morningglory plant response rating [7, 23]: 20
- Corn plant response rating (0 to 100 scale) [8, 16]: 0
- Plant response rating, Corn [8, 17]: 50
- Corn plant response rating [8, 18]: 20
- Corn plant response rating [8, 19]: 30
- Foxtail, Giant plant response rating (0 to 100 scale) [9, 16]: 30
- Plant response rating, Foxtail, Giant [9, 17]: 60
- Foxtail, Giant plant response rating [9, 18]: 20
- Foxtail, Giant plant response rating [9, 19]: 30
- Pigweed plant response rating (0 to 100 scale) [10, 20]: 70
- Plant response rating, Pigweed [10, 21]: 100
- Pigweed plant response rating [10, 22]: 30
- Pigweed plant response rating [10, 23]: 40
- Sedge, Umbrella plant response rating ([11]; visual rating, 13 to 15 days): 90
- Barnyardgrass plant response rating ([12]; visual rating, 13 to 15 days): 60
- Blackgrass plant response rating [13, 18]: 0
- Blackgrass plant response rating [13, 19]: 20
- Rice plant response rating ([14]; visual rating, 13 to 15 days): 50
- Surinam Grass plant response rating (0 to 100 scale) [15, 20]: 20
- Plant response rating, Surinam Grass [15, 21]: 50
- Surinam Grass plant response rating [15, 22]: 20
- Surinam Grass plant response rating [15, 23]: 20

SMILES: C=CCNC(=O)c1cccc(NC(=O)c2nn(C(C)C)nc2CC)c1 [Compound 382]
- Plant response rating (0 to 100 scale), Cocklebur [1, 24]: 0
- Cocklebur plant response rating [1, 25]: 10
- Cocklebur plant response rating [1, 26]: 10
- Ducksalad plant response rating [2]: 80
- Plant response rating (0 to 100 scale), Lambsquarters [3, 27]: 100
- Lambsquarters plant response rating [3, 28]: 50
- Lambsquarters plant response rating [3, 29]: 70
- Wheat plant response rating [4, 28]: 0
- Wheat plant response rating ([4]; 500 g ai/ha, scale 0 to 100, 0 no effect, 100 complete control, preemergence): 80
- Wheat plant response rating [4, 29]: 10
- Plant response rating (0 to 100 scale), Velvetleaf [5, 27]: 10
- Velvetleaf plant response rating [5, 28]: 10
- Velvetleaf plant response rating [5, 29]: 20
- Oat, Wild plant response rating [6, 28]: 10
- Oat, Wild plant response rating [6, 29]: 20
- Plant response rating (0 to 100 scale), Morningglory [7, 27]: 10
- Morningglory plant response rating [7, 28]: 20
- Morningglory plant response rating [7, 29]: 60
- Plant response rating (0 to 100 scale), Corn [8, 24]: 0
- Corn plant response rating [8, 25]: 0
- Corn plant response rating [8, 26]: 0
- Plant response rating (0 to 100 scale), Foxtail, Giant [9, 24]: 80
- Foxtail, Giant plant response rating [9, 25]: 0
- Foxtail, Giant plant response rating [9, 26]: 10
- Plant response rating (0 to 100 scale), Pigweed [10, 27]: 50
- Pigweed plant response rating [10, 28]: 30
- Pigweed plant response rating [10, 29]: 40
- Sedge, Umbrella plant response rating [11]: 70
- Barnyardgrass plant response rating [12]: 80
- Blackgrass plant response rating [13, 25]: 10
- Blackgrass plant response rating [13, 26]: 30
- Rice plant response rating [14]: 80
- Plant response rating (0 to 100 scale), Surinam Grass [15, 27]: 50
- Surinam Grass plant response rating [15, 28]: 10
- Surinam Grass plant response rating [15, 29]: 10

SMILES: CCNC(=O)c1ccc(F)c(NC(=O)c2cc(C(C)(C)C)nn2CC)n1 [Compound 278]
- Cocklebur plant response rating (0 to 100 scale) [1, 16]: 0
- Plant response rating, Cocklebur [1, 30]: 0
- Cocklebur plant response rating [1, 18]: 10
- Cocklebur plant response rating [1, 26]: 30
- Ducksalad plant response rating [2]: 80
- Lambsquarters plant response rating (0 to 100 scale) [3, 20]: 100
- Plant response rating, Lambsquarters [3, 31]: 100
- Lambsquarters plant response rating [3, 22]: 20
- Lambsquarters plant response rating [3, 32]: 30
- Wheat plant response rating [4, 22]: 30
- Wheat plant response rating [4, 32]: 30
- Velvetleaf plant response rating (0 to 100 scale) [5, 20]: 0
- Plant response rating, Velvetleaf [5, 31]: 60
- Velvetleaf plant response rating [5, 22]: 10
- Velvetleaf plant response rating [5, 32]: 10
- Oat, Wild plant response rating [6, 22]: 20
- Oat, Wild plant response rating [6, 32]: 30
- Morningglory plant response rating (0 to 100 scale) [7, 20]: 0
- Plant response rating, Morningglory [7, 31]: 10
- Morningglory plant response rating [7, 22]: 0
- Morningglory plant response rating [7, 32]: 20
- Corn plant response rating (0 to 100 scale) [8, 16]: 0
- Plant response rating, Corn [8, 30]: 20
- Corn plant response rating [8, 18]: 10
- Corn plant response rating [8, 26]: 20
- Foxtail, Giant plant response rating (0 to 100 scale) [9, 16]: 20
- Plant response rating, Foxtail, Giant [9, 30]: 80
- Foxtail, Giant plant response rating [9, 18]: 0
- Foxtail, Giant plant response rating [9, 26]: 10
- Pigweed plant response rating (0 to 100 scale) [10, 20]: 100
- Plant response rating, Pigweed [10, 31]: 100
- Pigweed plant response rating [10, 22]: 10
- Pigweed plant response rating [10, 32]: 40
- Sedge, Umbrella plant response rating [11]: 70
- Barnyardgrass plant response rating [12]: 60
- Blackgrass plant response rating [13, 18]: 20
- Blackgrass plant response rating [13, 26]: 30
- Rice plant response rating [14]: 60
- Surinam Grass plant response rating (0 to 100 scale) [15, 20]: 20
- Plant response rating, Surinam Grass [15, 31]: 60
- Surinam Grass plant response rating [15, 22]: 10
- Surinam Grass plant response rating [15, 32]: 10

SMILES: CCN(CC)C(=O)c1ccnc(NC(=O)c2cc(C(C)(C)C)nn2CC)c1 [Compound 153]
- Plant response rating, Cocklebur [1, 17]: 0
- Cocklebur plant response rating [1, 18]: 50
- Cocklebur plant response rating [1, 19]: 100
- Plant response rating, Cocklebur [1, 33]: 0
- Ducksalad plant response rating ([2]; visual rating, 13 to 15 days): 80
- Plant response rating, Lambsquarters [3, 21]: 100
- Lambsquarters plant response rating [3, 22]: 80
- Lambsquarters plant response rating [3, 23]: 80
- Plant response rating, Lambsquarters [3, 34]: 100
- Wheat plant response rating [4, 23]: 10
- Plant response rating, Velvetleaf [5, 21]: 100
- Velvetleaf plant response rating [5, 22]: 50
- Velvetleaf plant response rating [5, 23]: 60
- Plant response rating, Velvetleaf [5, 34]: 40
- Oat, Wild plant response rating [6, 22]: 20
- Oat, Wild plant response rating [6, 23]: 50
- Plant response rating, Morningglory [7, 21]: 10
- Morningglory plant response rating [7, 22]: 10
- Morningglory plant response rating [7, 23]: 70
- Plant response rating, Morningglory [7, 34]: 0
- Plant response rating, Corn [8, 17]: 20
- Corn plant response rating [8, 18]: 10
- Corn plant response rating [8, 19]: 20
- Plant response rating, Corn [8, 33]: 0
- Plant response rating, Foxtail, Giant [9, 17]: 50
- Foxtail, Giant plant response rating [9, 18]: 10
- Foxtail, Giant plant response rating [9, 19]: 20
- Plant response rating, Foxtail, Giant [9, 33]: 0
- Plant response rating, Pigweed [10, 21]: 100
- Pigweed plant response rating [10, 22]: 20
- Pigweed plant response rating [10, 23]: 70
- Plant response rating, Pigweed [10, 34]: 100
- Sedge, Umbrella plant response rating ([11]; visual rating, 13 to 15 days): 70
- Barnyardgrass plant response rating ([12]; visual rating, 13 to 15 days): 40
- Blackgrass plant response rating [13, 18]: 10
- Blackgrass plant response rating [13, 19]: 10
- Rice plant response rating ([14]; visual rating, 13 to 15 days): 60
- Plant response rating, Surinam Grass [15, 21]: 70
- Surinam Grass plant response rating [15, 22]: 30
- Surinam Grass plant response rating [15, 23]: 30
- Plant response rating, Surinam Grass [15, 34]: 10
